Experimental data reported in PubChem BioAssay AID1963965 (Molecular Pharmacology Branch, DTP, NCI, 2024).

Test system: 996289-038-R-J1-PDC spheroid viability
Test: Anticancer human tumor 996289-038-R-J1-PDC patient-derived colon adenocarcinoma cell line growth inhibition [PI3K]
Details: spheroids with HUVEC and MSC; for viability, T/C: stronger effect = lower value
Outline: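 Combination activity was assessed by viability in multicellular tumor spheroids carrying HUVEC and MSC components. Agents were tested with PI3K inhibitors from a Cmax-based top dose (or 10 microM) downward in half-log increments.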
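Further: spheroids exposed to compounds for seven days before viability read.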
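Wherever viability, T/C is given: luminescence used as a proxy for viable cell amount; percent viability relative to DMSO vehicle control as 100%.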

Question: For `Cn1ncc(Cl)c1-c1cc(C(=O)NC(CN)Cc2cccc(F)c2)sc1Cl` (stereo not given) + Cc1nc(NC(=O)N2CCCC2C(N)=O)sc1-c1ccnc(C(C)(C)C(F)(F)F)c1, which IC50 (curve of first compound, second compound 0.0316 µM) is on record?
Answer: 9680 nM

Question: What about the IC50 (curve of first compound, second compound 0.1 µM) of the same molecule?
Answer: 4610 nM

Question: And the IC50 (curve of first compound, second compound 0.316 µM)?
Answer: 2740 nM

Question: And the IC50 (curve of first compound, second compound 1 µM)?
Answer: 1390 nM

Question: And the IC50 (curve of first compound, second compound 3.16 µM)?
Answer: 659 nM

Question: What about the IC50 (curve of first compound, second compound 10 µM) of the same molecule?
Answer: < 31.6 nM

Question: And the viability, T/C (second compound 0.0316 µM, first compound 0.0316 µM)?
Answer: 76.9%

Question: What about the viability, T/C (second compound 0.0316 µM, first compound 0.1 µM) of the same molecule?
Answer: 91.2%

Question: What about the viability, T/C (second compound 0.0316 µM, first compound 0.316 µM) of the same molecule?
Answer: 78.2%

Question: And the viability, T/C (second compound 0.0316 µM, first compound 1 µM)?
Answer: 63.9%

Question: What about the viability, T/C (second compound 0.0316 µM, first compound 3.16 µM) of the same molecule?
Answer: 60%

Question: And the viability, T/C (second compound 0.0316 µM, first compound 10 µM)?
Answer: 47.6%

Question: And the viability, T/C (second compound 0.1 µM, first compound 0.0316 µM)?
Answer: 89.2%

Question: What about the viability, T/C (second compound 0.1 µM, first compound 0.1 µM) of the same molecule?
Answer: 80.3%

Question: What about the viability, T/C (second compound 0.1 µM, first compound 0.316 µM) of the same molecule?
Answer: 78.5%

Question: What about the viability, T/C (second compound 0.1 µM, first compound 1 µM) of the same molecule?
Answer: 56%

Question: And the viability, T/C (second compound 0.1 µM, first compound 3.16 µM)?
Answer: 55.9%

Question: What about the viability, T/C (second compound 0.1 µM, first compound 10 µM) of the same molecule?
Answer: 45.1%

Question: And the viability, T/C (second compound 0.316 µM, first compound 0.0316 µM)?
Answer: 75.2%

Question: What about the viability, T/C (second compound 0.316 µM, first compound 0.1 µM) of the same molecule?
Answer: 87.5%

Question: What about the viability, T/C (second compound 0.316 µM, first compound 0.316 µM) of the same molecule?
Answer: 67.1%

Question: What about the viability, T/C (second compound 0.316 µM, first compound 1 µM) of the same molecule?
Answer: 58%

Question: What about the viability, T/C (second compound 0.316 µM, first compound 3.16 µM) of the same molecule?
Answer: 51.9%

Question: What about the viability, T/C (second compound 0.316 µM, first compound 10 µM) of the same molecule?
Answer: 31.5%

Question: And the viability, T/C (second compound 1 µM, first compound 0.0316 µM)?
Answer: 82.4%

Question: What about the viability, T/C (second compound 1 µM, first compound 0.1 µM) of the same molecule?
Answer: 71.8%

Question: And the viability, T/C (second compound 1 µM, first compound 0.316 µM)?
Answer: 63.4%

Question: And the viability, T/C (second compound 1 µM, first compound 1 µM)?
Answer: 53.9%

Question: And the viability, T/C (second compound 1 µM, first compound 3.16 µM)?
Answer: 42.4%

Question: And the viability, T/C (second compound 1 µM, first compound 10 µM)?
Answer: 31.7%

Question: What about the viability, T/C (second compound 3.16 µM, first compound 0.0316 µM) of the same molecule?
Answer: 61%

Question: What about the viability, T/C (second compound 3.16 µM, first compound 0.1 µM) of the same molecule?
Answer: 63.6%

Question: What about the viability, T/C (second compound 3.16 µM, first compound 0.316 µM) of the same molecule?
Answer: 59.2%

Question: What about the viability, T/C (second compound 3.16 µM, first compound 1 µM) of the same molecule?
Answer: 43.4%

Question: What about the viability, T/C (second compound 3.16 µM, first compound 3.16 µM) of the same molecule?
Answer: 34.5%

Question: What about the viability, T/C (second compound 3.16 µM, first compound 10 µM) of the same molecule?
Answer: 24.9%

Question: What about the viability, T/C (second compound 10 µM, first compound 0.0316 µM) of the same molecule?
Answer: 34.8%

Question: And the viability, T/C (second compound 10 µM, first compound 0.1 µM)?
Answer: 36.4%

Question: And the viability, T/C (second compound 10 µM, first compound 0.316 µM)?
Answer: 41.6%

Question: What about the viability, T/C (second compound 10 µM, first compound 1 µM) of the same molecule?
Answer: 35.5%

Question: What about the viability, T/C (second compound 10 µM, first compound 3.16 µM) of the same molecule?
Answer: 27.3%

Question: What about the viability, T/C (second compound 10 µM, first compound 10 µM) of the same molecule?
Answer: 16.2%

Question: For `Cn1ncnc1[C@H]1c2n[nH]c(=O)c3cc(F)cc(c23)N[C@@H]1c1ccc(F)cc1`, which viability, T/C (compound 0.001 µM) is on record?
Answer: 105% [middle of 4 runs]

Question: What about the viability, T/C (compound 0.00316 µM) of the same molecule?
Answer: 103% [middle of 4 runs]

Question: And the viability, T/C (compound 0.01 µM)?
Answer: 100% [middle of 4 runs]

Question: What about the viability, T/C (compound 0.0316 µM) of the same molecule?
Answer: 109% [middle of 4 runs]

Question: What about the viability, T/C (compound 0.1 µM) of the same molecule?
Answer: 98.9% [middle of 4 runs]

Question: And the IC50 (curve of compound)?
Answer: > 100 nM

Question: For `C#Cc1c(F)ccc2cc(O)cc(-c3ncc4c(N5CC6CCC(C5)N6)nc(OCC56CCCN5CC(F)C6)nc4c3F)c12` (stereo not given), which viability, T/C (compound 0.0316 µM) is on record?
Answer: 90.4% [middle of 4 runs]

Question: And the viability, T/C (compound 0.1 µM)?
Answer: 83.8% [middle of 4 runs]

Question: What about the viability, T/C (compound 0.316 µM) of the same molecule?
Answer: 70.2% [middle of 4 runs]

Question: And the viability, T/C (compound 1 µM)?
Answer: 52.4% [middle of 4 runs]

Question: What about the viability, T/C (compound 3.16 µM) of the same molecule?
Answer: 44.8% [middle of 4 runs]

Question: What about the viability, T/C (compound 10 µM) of the same molecule?
Answer: 37.7% [middle of 4 runs]

Question: And the IC50 (curve of compound)?
Answer: 1.79 µM [middle of 4 runs]
